US8399512B2, “Biocompatible biodegradable fumagillin analog conjugates” (Mersana Therapeutics, Inc., priority 2007, dated 2013)

How the values were obtained:
[1] = test system: human umbilical vein endothelial cells (HUVECs); test: Inhibitory effect on HUVEC cell growth (MTS/PES colorimetry); format: cell-based; settings: cultured 5 days, MTS/PES absorbance 490 nm
Description: Using human umbilical vein endothelial cells (HUVECs), the effect of the fumagillin analog conjugates and the fumagillin analogs on cell growth was evaluated.
The HUVECs were added to M199 medium supplemented with 20% FBS, after which the cells were incubated at 37° C. under 5% CO2. 96-well plates were seeded at 5,000 cells/well in a total volume of 100 μL. The cells were left overnight to attach to the plate. Cells were subcultured a maximum of 15 times before being discarded.
To evaluate the inhibitory activity of the fumagillin conjugate or the fumagillin analog alone on the growth of HUVEC cells, the conjugate or fumagillin analog was dissolved in the required amount of 0.9% saline, vortexed briefly to wet and disperse the solids, followed by vortexing for a total of 30 min. […] The cells were treated with the conjugate solution or fumagillin analog solution at various concentrations ranging from 30 nM to 0.01 nM, and cultured for 5 days at 37° C.
Colorimetry was performed to determine the extent of cell growth by adding 20 μL of MTS/PES reagent to each well, incubation for 4 h at 37° C. followed by measuring the absorbance at 490 nm.

B16F10 tumor cells = test: Tumor growth delay in B16F10 mouse melanoma; format: in vivo; settings: IV, q3d × 4, BDF1 mice
Description: BDF1 female mice (N=6) with 1×10^6 B16F10 tumor cells positioned subcutaneous in the flank were treated with various fumagillin conjugates of the invention. Tumor growth was monitored in parallel with positive and negative controls of cyclophosphamide and saline respectively. Treatment began when tumors reached an average size of 80-120 mg and tumor volumes were measured two times per week until animals reached an endpoint tumor volume of 2 grams or 45 days, whichever came first. Conjugates were administered as solutions in saline intravenously at dose levels of 30-100 mg/kg (expressed as fumagillin analog equivalents) on a schedule of q3dx4. Treatment outcomes were assessed in terms of percent tumor growth delay (% TGD), (see FIG. 1) defined as the percent increase in median time to endpoint for mice treated with an agent compared to those treated with saline.

[2] = 80 mg/kg fumagillin analog equiv.

Compound: CO[C@H]1[C@H](C2(C)O[C@@H]2CC=C(C)C)[C@]2(CC[C@H]1OC(=O)NCc1ccccc1)CO2 (stereo partly shown) [Compound 5]
- IC50 ([1]; Homo sapiens, 120 h): < 25 nM

Compound: CO[C@H]1[C@H](C2(C)O[C@@H]2CC=C(C)C)[C@]2(CC[C@H]1OC(=O)N1CCN(CCOC(=O)CCC(=O)O)CC1)CO2 (stereo partly shown) [Compound 54]
- IC50 ([1]; Homo sapiens, 120 h): < 25 nM

Compound: CO[C@H]1[C@H](C2(C)O[C@@H]2CC=C(C)C)[C@]2(CC[C@H]1OC(=O)NC(=O)CSc1cccc(N)c1)CO2 (stereo partly shown) [Compound 35]
- IC50 ([1]; Homo sapiens, 120 h): < 25 nM
- % TGD (B16F10 tumor cells; [2]): 20-50%

Compound: COc1cc(/C=C/C(=O)N[C@@H]2CC[C@]3(CO3)[C@@H](C3(C)O[C@@H]3CC=C(C)C)[C@@H]2OC)cc(OC)c1OC (stereo partly shown) [Compound 37]
- IC50 ([1]; Homo sapiens, 120 h): 25 to 100 nM

Compound: CO[C@H]1[C@H](C2(C)O[C@@H]2CC=C(C)C)[C@]2(CC[C@H]1OC(=O)N1CCN(C(=O)[C@H](C)N)CC1)CO2 (stereo partly shown) [Compound 56]
- IC50 ([1]; Homo sapiens, 120 h): < 25 nM

Compound: CO[C@H]1[C@H](C2(C)O[C@@H]2CC=C(C)C)[C@]2(CC[C@H]1NC(=O)CCl)CO2 (stereo partly shown) [Compound 44]
- IC50 ([1]; Homo sapiens, 120 h): < 25 nM
- % TGD (B16F10 tumor cells; [2]): 5-20%

Compound: CO[C@H]1[C@H](C2(C)O[C@@H]2CC=C(C)C)[C@]2(CC[C@H]1OC(=O)NC(=O)CSCCNC(=O)C1CCCN1C(=O)OCC1c3ccccc3-c3ccccc31)CO2 (stereo partly shown) [Compound 31]
- IC50 ([1]; Homo sapiens, 120 h): < 25 nM
- % TGD (B16F10 tumor cells; [2]): 20-50%

Compound: CCOC(=O)CCN1CCN(C(=O)O[C@@H]2CC[C@]3(CO3)[C@@H](C3(C)O[C@@H]3CC=C(C)C)[C@@H]2OC)CC1 (stereo partly shown) [Compound 22]
- IC50 ([1]; Homo sapiens, 120 h): < 25 nM
- % TGD (B16F10 tumor cells; 30 mg/kg fumagillin analog equiv.): 5-20%

Compound: CO[C@H]1[C@H](C2(C)O[C@@H]2CC=C(C)C)[C@]2(CC[C@H]1OC(=O)/C=C/c1ccc(OCCN(C)C)cc1)CO2 (stereo partly shown) [Compound 36]
- IC50 ([1]; Homo sapiens, 120 h): < 25 nM

Compound: COc1cc(/C=C/C(=O)O[C@@H]2CC[C@]3(CO3)[C@@H](C3(C)O[C@@H]3CC=C(C)C)[C@@H]2OC)cc(OC)c1OC (stereo partly shown) [Compound 21]
- IC50 ([1]; Homo sapiens, 120 h): < 25 nM

Compound: CO[C@H]1[C@H](C2(C)O[C@@H]2CC=C(C)C)[C@]2(CC[C@H]1NC(=O)c1ccc([N+](=O)[O-])cc1)CO2 (stereo partly shown) [Compound 19]
- IC50 ([1]; Homo sapiens, 120 h): < 25 nM
- % TGD (B16F10 tumor cells; 40 mg/kg fumagillin analog equiv.): 20-50%

Compound: CCOC(=O)C1CCC(CNC(=O)O[C@@H]2CC[C@]3(CO3)[C@@H](C3(C)O[C@@H]3CC=C(C)C)[C@@H]2OC)CC1 (stereo partly shown) [Compound 29]
- IC50 ([1]; Homo sapiens, 120 h): < 25 nM

Compound: CO[C@H]1[C@H](C2(C)O[C@@H]2CC=C(C)C)[C@]2(CC[C@H]1NC(=O)NC(=O)CCl)CO2 (stereo partly shown) [Compound 28]
- IC50 ([1]; Homo sapiens, 120 h): < 25 nM

Compound: CO[C@H]1[C@H](C2(C)O[C@@H]2CC=C(C)C)[C@]2(CC[C@H]1NC(=O)C13CCC(C(=O)NCCCOC(=O)C4CCCN4)(CC1)CC3)CO2 (stereo partly shown) [Compound 42]
- IC50 ([1]; Homo sapiens, 120 h): 100 to 300 nM

Compound: CO[C@H]1[C@H](C2(C)O[C@@H]2CC=C(C)C)[C@]2(CC[C@H]1OC(=O)NC(=O)CSc1ccc(N)cc1)CO2 (stereo partly shown) [Compound 30]
- IC50 ([1]; Homo sapiens, 120 h): < 25 nM

Compound: CO[C@H]1[C@H](C2(C)O[C@@H]2CC=C(C)C)[C@]2(CC[C@H]1NC(=O)NCCc1ccc(N)cc1)CO2 (stereo partly shown) [Compound 57]
- IC50 ([1]; Homo sapiens, 120 h): < 25 nM

Compound: CO[C@H]1[C@H](C2(C)O[C@@H]2CC=C(C)C)[C@]2(CC[C@H]1OC(=O)/C=C/c1ccc(O)cc1)CO2 (stereo partly shown) [Compound 4]
- IC50 ([1]; Homo sapiens, 120 h): > 30 nM

Compound: COC(=O)c1ccc(C(=O)N[C@@H]2CC[C@]3(CO3)[C@@H](C3(C)O[C@@H]3CC=C(C)C)[C@@H]2OC)cc1 (stereo partly shown) [Compound 46]
- IC50 ([1]; Homo sapiens, 120 h): < 25 nM

Compound: CO[C@H]1[C@H](C2(C)O[C@@H]2CC=C(C)C)[C@]2(CC[C@H]1OC(=O)/C=C/C=C/C=C/C=C/C(=O)O)CO2 (stereo partly shown) [Compound 24]
- IC50 ([1]; Homo sapiens, 120 h): < 25 nM

Compound: COC(=O)C(=O)O[C@@H]1CC[C@]2(CO2)[C@@H](C2(C)O[C@@H]2CC=C(C)C)[C@@H]1OC (stereo partly shown) [Compound 16]
- IC50 ([1]; Homo sapiens, 120 h): > 30 nM
- % TGD (B16F10 tumor cells; [2]): 20-50%

Compound: COC(=O)C12CCC(C(=O)O[C@@H]3CC[C@]4(CO4)[C@@H](C4(C)O[C@@H]4CC=C(C)C)[C@@H]3OC)(CC1)CC2 (stereo partly shown) [Compound 1]
- IC50 ([1]; Homo sapiens, 120 h): < 25 nM

Compound: CCN1CCN(C(=O)O[C@@H]2CC[C@]3(CO3)[C@@H](C3(C)O[C@@H]3CC=C(C)C)[C@@H]2OC)CC1 (stereo partly shown) [Compound 9]
- IC50 ([1]; Homo sapiens, 120 h): < 25 nM
- % TGD (B16F10 tumor cells; 100 mg/kg fumagillin analog equiv.): 20-50%

Compound: CO[C@H]1[C@H](C2(C)O[C@@H]2CC=C(C)C)[C@]2(CC[C@H]1OC(=O)NC(=O)CCl)CO2 (stereo partly shown) [Compound 2]
- IC50 ([1]; Homo sapiens, 120 h): < 25 nM

Compound: CO[C@H]1[C@H](C2(C)O[C@@H]2CC=C(C)C)[C@]2(CC[C@H]1OC(=O)/C=C/c1ccccc1)CO2 (stereo partly shown) [Compound 13]
- IC50 ([1]; Homo sapiens, 120 h): > 30 nM
- % TGD (B16F10 tumor cells; [2]): 5-20%

Compound: CO[C@H]1[C@H](C2(C)O[C@@H]2CC=C(C)C)[C@]2(CC[C@H]1NC(=O)CSc1ccc(N)cc1)CO2 (stereo partly shown) [Compound 45]
- IC50 ([1]; Homo sapiens, 120 h): < 25 nM

Compound: CO[C@H]1[C@H](C2(C)O[C@@H]2CC=C(C)C)[C@]2(CC[C@H]1NC(=O)C13CCC(C(=O)NCCCOC(=O)[C@H](C)N)(CC1)CC3)CO2 (stereo partly shown) [Compound 41]
- IC50 ([1]; Homo sapiens, 120 h): 100 to 300 nM

Compound: CO[C@H]1[C@H](C2(C)O[C@@H]2CC=C(C)C)[C@]2(CC[C@H]1NC(=O)C13CCC(C(=O)NCCCOC(=O)[C@@H]4CCCN4)(CC1)CC3)CO2 (stereo partly shown) [Compound 49]
- IC50 ([1]; Homo sapiens, 120 h): 100 to 300 nM

Compound: CO[C@H]1[C@H](C2(C)O[C@@H]2CC=C(C)C)[C@]2(CC[C@H]1OC(=O)C1CCC(CNC(=O)OCC3c4ccccc4-c4ccccc43)CC1)CO2 (stereo partly shown) [Compound 33]
- IC50 ([1]; Homo sapiens, 120 h): > 30 nM
- % TGD (B16F10 tumor cells; 65 mg/kg fumagillin analog equiv.): 5-20%

Compound: CO[C@H]1[C@H](C2(C)O[C@@H]2CC=C(C)C)[C@]2(CC[C@H]1NC(=O)N1CCN(CCO)CC1)CO2 (stereo partly shown) [Compound 53]
- IC50 ([1]; Homo sapiens, 120 h): 25 to 100 nM

Compound: CO[C@H]1[C@H](C2(C)O[C@@H]2CC=C(C)C)[C@]2(CC[C@H]1OC(=O)NCc1ccc(NC(=O)[C@H](C)N)cc1)CO2 (stereo partly shown) [Compound 50]
- IC50 ([1]; Homo sapiens, 120 h): < 25 nM

Compound: CO[C@H]1[C@H](C2(C)O[C@@H]2CC=C(C)C)[C@]2(CC[C@H]1OC(=O)NS(=O)(=O)N1CCN(C(C)=O)CC1)CO2 (stereo partly shown) [Compound 47]
- IC50 ([1]; Homo sapiens, 120 h): < 25 nM

Compound: CO[C@@H]1C(=O)CC[C@]2(CO2)[C@H]1C1(C)O[C@@H]1CC=C(C)C (stereo partly shown) [Compound 20]
- IC50 ([1]; Homo sapiens, 120 h): < 25 nM

Compound: COC(=O)[C@@H](N)CSCC(=O)NC(=O)O[C@@H]1CC[C@]2(CO2)[C@@H](C2(C)O[C@@H]2CC=C(C)C)[C@@H]1OC (stereo partly shown) [Compound 14]
- IC50 [1]: < 25 nM

Compound: CO[C@H]1[C@H](C2(C)O[C@@H]2CC=C(C)C)[C@]2(CC[C@H]1OC(=O)NC(=O)CSc1ccc(C(=O)O)cc1)CO2 (stereo partly shown) [Compound 34]
- IC50 ([1]; Homo sapiens, 120 h): < 25 nM

Compound: CO[C@H]1[C@H](C2(C)O[C@@H]2CC=C(C)C)[C@]2(CC[C@H]1NC(=O)c1ccc(C(=O)NCCCO)cc1)CO2 (stereo partly shown) [Compound 48]
- IC50 ([1]; Homo sapiens, 120 h): < 25 nM

Compound: COC(=O)C12CCC(C(=O)N[C@@H]3CC[C@]4(CO4)[C@@H](C4(C)O[C@@H]4CC=C(C)C)[C@@H]3OC)(CC1)CC2 (stereo partly shown) [Compound 43]
- IC50 ([1]; Homo sapiens, 120 h): < 25 nM

Compound: CO[C@H]1[C@H](C2(C)O[C@@H]2CC=C(C)C)[C@]2(CC[C@H]1OC(=O)N1CCN(CCOC(=O)C3CCCN3C(=O)OCC3c4ccccc4-c4ccccc43)CC1)CO2 (stereo partly shown) [Compound 55]
- IC50 ([1]; Homo sapiens, 120 h): < 25 nM

Compound: COC(=O)[C@@H](N)CSCC(=O)NC(=O)O[C@@H]1CC[C@]2(CO2)[C@@H](C2(C)O[C@@H]2CC=C(C)C)[C@@H]1OC (stereo partly shown) [Compound 3]
- IC50 ([1]; Homo sapiens, 120 h): < 25 nM

Compound: CO[C@H]1[C@H](C2(C)O[C@@H]2CC=C(C)C)[C@]2(CC[C@H]1OC(=O)NC(=O)CSc1cccc(NC(=O)CCC(=O)O)c1)CO2 (stereo partly shown) [Compound 52]
- IC50 ([1]; Homo sapiens, 120 h): < 25 nM

Compound: CO[C@H]1[C@H](C2(C)O[C@@H]2CC=C(C)C)[C@]2(CC[C@H]1OC(=O)NCc1ccc(NC(C)=O)cc1)CO2 (stereo partly shown) [Compound 17]
- IC50 ([1]; Homo sapiens, 120 h): < 25 nM
